One test has as its target T1, HDAC7 (Homo sapiens, UniProt Q8WUI4).
T1 sequence (Q8WUI4 1-952): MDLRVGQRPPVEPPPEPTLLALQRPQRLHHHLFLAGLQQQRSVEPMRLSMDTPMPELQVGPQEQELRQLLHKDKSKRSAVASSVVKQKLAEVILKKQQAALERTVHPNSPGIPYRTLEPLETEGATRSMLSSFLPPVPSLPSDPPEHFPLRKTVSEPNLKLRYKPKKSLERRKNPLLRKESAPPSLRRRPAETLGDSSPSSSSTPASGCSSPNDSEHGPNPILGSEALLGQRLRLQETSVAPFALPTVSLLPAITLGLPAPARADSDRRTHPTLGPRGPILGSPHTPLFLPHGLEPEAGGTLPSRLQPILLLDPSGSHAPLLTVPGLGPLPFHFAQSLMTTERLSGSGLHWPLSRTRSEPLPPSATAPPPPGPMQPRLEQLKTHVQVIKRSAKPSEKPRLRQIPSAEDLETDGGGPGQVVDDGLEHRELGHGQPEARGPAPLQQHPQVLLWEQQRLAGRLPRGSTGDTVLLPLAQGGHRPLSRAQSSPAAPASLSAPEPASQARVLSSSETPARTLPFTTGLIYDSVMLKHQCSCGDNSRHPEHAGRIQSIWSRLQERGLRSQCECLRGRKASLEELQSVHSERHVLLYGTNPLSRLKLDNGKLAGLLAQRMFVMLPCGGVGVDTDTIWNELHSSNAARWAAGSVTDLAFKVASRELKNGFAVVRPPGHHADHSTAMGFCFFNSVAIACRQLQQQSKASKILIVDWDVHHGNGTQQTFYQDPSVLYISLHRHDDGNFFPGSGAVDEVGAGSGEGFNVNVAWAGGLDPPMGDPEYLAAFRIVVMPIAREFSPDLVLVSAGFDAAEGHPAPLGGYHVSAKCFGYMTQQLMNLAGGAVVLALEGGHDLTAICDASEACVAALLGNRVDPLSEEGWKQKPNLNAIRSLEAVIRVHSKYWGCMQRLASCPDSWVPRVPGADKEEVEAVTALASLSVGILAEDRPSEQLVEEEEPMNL
The test can be described thus: HDAC biochemical activity measurement (fluorescent substrate deacetylation).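 Also: fluorogenic deacetylation assay using acetyl-lysine substrate at 20 µM, enzyme and compound incubated 30 min at 37 °C, then developer added, fluorescence read at 360/460 nm.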 As to conditions: HDAC7; 37° C. 30 minutes.

Test [1] deals with KBM-5 (human chronic myelogenous leukemia). The test can be described thus: MTT cancer cell growth inhibition. The class given is cell-based. To be noted: Homo sapiens, KBM5, 72 h, MTT, 72 hours incubation, KBM-5 cells; read-out: GI50 KBM-5. The essentials: (§1)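 Tumour cells in 10% FBS-supplemented DMEM or RPMI 1640 are plated at 1500 per well, dosed next day with compound (10^−5 through 10^−10 M, final) and kept 72 h. MTT is added for 4 h; dissolved formazan is measured at 570 nm and GI50 determined.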

Test [2] deals with U937 (human leukemia cells). The test can be described thus: MTT cancer cell growth inhibition. The class given is cell-based. As to conditions: Homo sapiens, U-937, 72 h, MTT, 72 hours incubation, read-out: GI50 U93. The essentials: as §1
Test [3] concerns BGC-823 (human gastric cancer cells). The test can be described thus: MTT cancer cell growth inhibition. The format is cell-based. To be noted: Homo sapiens, BGC-823, 72 h, MTT, 72 hours incubation, read-out: GI50 BG. The essentials:
as §1

Test [4] deals with MCF-7 (human breast cancer cells). The test can be described thus: MTT cancer cell growth inhibition. The class given is cell-based. To be noted: Homo sapiens, MCF7, 72 h, 72 hours incubation, read-out: GI50 MCF. The essentials: as §1
In test [5] the test system is KBM5-T315I (human chronic myelogenous leukemia). The test can be described thus: MTT cancer cell growth inhibition. The format is cell-based. To be noted: Homo sapiens, 72 h, MTT, 72 hours incubation, KBM5-T315I cells; read-out: GI50 KBM5-T315I. The essentials: as §1
Test [6] has as its system lncap (prostate cancer cells). The test can be described thus: MTT cancer cell growth inhibition. The class given is cell-based. To be noted: Homo sapiens, LNCaP, 72 h, MTT, 72 hours incubation, read-out: GI50 lnca. The essentials: as §1
The test system of test [7] is HT1080 (human fibrosarcoma cells). Description: MTT cancer cell growth inhibition. To be noted: Homo sapiens, HT-1080, 72 h, MTT, 72 hours incubation, read-out: GI50 HT1. The class given is cell-based. The essentials: as §1
Test [8] concerns K562 (human leukemia cells). The test can be described thus: MTT cancer cell growth inhibition. The class given is cell-based. To be noted: Homo sapiens, K562, 72 h, MTT, 72 hours incubation, K562 cells; read-out: GI50 K562. The essentials:
as §1

Test [9] has as its system DU145 (human prostate cancer cells). Description: MTT cancer cell growth inhibition. The format is cell-based. As to conditions: Homo sapiens, DU-145, 72 h, MTT, 72 hours incubation, read-out: GI50 Du1. The essentials:
as §1

Test [10] deals with SGC-7901 (human gastric cancer cells). The test can be described thus: MTT cancer cell growth inhibition. The class given is cell-based. As to conditions: Homo sapiens, SGC-7901, 72 h, MTT, 72 hours incubation, SGC-7901 cells; read-out: GI50 SGC-7901. The essentials:
as §1

In test [11] the test system is A549 (human lung cancer cells). Description: MTT cancer cell growth inhibition. The class given is cell-based. As to conditions: Homo sapiens, A549, 72 h, MTT, 72 hours incubation, read-out: GI50 A54. The essentials: as §1
The subject of test [12] is HCC827 (human non-small cell lung cancer cells). The test can be described thus: MTT cancer cell growth inhibition. To be noted: Homo sapiens, HCC827, 72 h, MTT, 72 hours incubation, HCC827 cells; read-out: GI50 HCC827. The format is cell-based. The essentials: as §1
Test [13] has as its system Huh-7 (human hepatoma cells). Description: MTT cancer cell growth inhibition. The format is cell-based. To be noted: Homo sapiens, Huh-7, 72 h, MTT, 72 hours incubation, Huh-7 cells; read-out: GI50 Huh-7. The essentials:
as §1

In test [14] the test system is Bel-7402 (human hepatoma cells). Description: MTT cancer cell growth inhibition. The class given is cell-based. To be noted: Homo sapiens, Bel-7402, 72 h, MTT, 72 hours incubation, Bel-7402 cells; read-out: GI50 Bel-7402. The essentials:
as §1

Test [15] relates to MOLT-4 (human acute lymphoblastic leukemia cells). Description: MTT cancer cell growth inhibition. The class given is cell-based. As to conditions: Homo sapiens, MOLT-4, 72 h, MTT, 72 hours incubation, read-out: GI50 Mol. The essentials:
as §1

The subject of test [16] is H1975 (non-small cell lung adenocarcinoma). Description: MTT cancer cell growth inhibition. The format is cell-based. As to conditions: Homo sapiens, NCI-H1975, 72 h, MTT, 72 hours incubation, H1975 cells; read-out: GI50 H1975. The essentials:
as §1

The subject of test [17] is N-87 (human gastric cancer cells). The test can be described thus: MTT cancer cell growth inhibition. As to conditions: Homo sapiens, 72 h, MTT, 72 hours incubation, N-87 cells; read-out: GI50 N-87. The class given is cell-based. The essentials:
as §1

The subject of test [18] is MDA-MB-231 (breast cancer cells). Description: MTT cancer cell growth inhibition. The class given is cell-based. To be noted: Homo sapiens, MDA-MB-231, 72 h, read-out: GI50 MDA-MB-231, MTT, 72 hours incubation, MDA-MB-231 cells. The essentials: as §1
The test system of test [19] is PANC-1 (Pac-1, human pancreatic cancer cells). The test can be described thus: MTT cancer cell growth inhibition. The format is cell-based. As to conditions: Homo sapiens, PANC-1, 72 h, MTT, 72 hours incubation, read-out: GI50 PAN. The essentials: as §1
The subject of test [20] is Hela (human cervical cancer cells). The test can be described thus: MTT cancer cell growth inhibition. The format is cell-based. As to conditions: Homo sapiens, HeLa, 72 h, MTT, 72 hours incubation, read-out: GI50 Hela. The essentials: as §1

SMILES strings stand for the structures. Read-outs that look alike come from different tables or passages of the source.

Regarding `C/C=C1\NC(=O)c2nc(F)cc(n2)CNC(=O)C[C@@H](/C=C/CCSC(C)=O)OC(=O)[C@H](C(C)C)NC1=O` [Compound 96], the “IC50 HDAC7” value on HDAC7 is reported as “no activity”. In addition, the 50% growth inhibitory concentration (GI50) was 72 nM in test [1]; 20 nM in test [2]; 20 nM in test [3]; 20 nM in [4]; 54 nM in [5]; 30 nM in test [6]. Besides, the GI50 in [7] stood at 40 nM; in test [8] it was 19 nM; in test [9], 20 nM; in [10], 37 nM; in [11], 40 nM; in test [12], 65 nM. In addition, the GI50 in [13] was 48 nM; in test [14], 61 nM; in test [15], 30 nM; in test [16] it was 73 nM; in test [17], 27 nM; in [18], 57 nM. Moreover, the 50% growth inhibitory concentration (GI50) turned out to be 40 nM in test [19] and 60 nM in test [20].

Regarding `C/C=C1\NC(=O)c2ccc(SC)c(n2)CNC(=O)C[C@@H](/C=C/CCS)OC(=O)[C@H](C)NC1=O` [Compound 234], the “IC50 HDAC7” value at HDAC7 is “no activity”. Moreover, the GI50 in test [1] stood at 12 nM; in [2] (U937 cells), 20 nM; in test [3] (BGC-823 cells), 80 nM; in test [4] (MCF-7 cells), 30 nM; in test [5], 32 nM; in test [6] (lncap cells), 20 nM. Further, the GI50 in test [7] (HT1080 cells) was found to be 10 nM; in test [8] it was 38 nM; in [9] (DU145 cells), 50 nM; in test [10] it was 39 nM; in test [11] (A549 cells) it was 20 nM; in [12], 16 nM. The GI50 in test [13] turned out to be 42 nM; in test [14], 82 nM; in [15] (MOLT-4 cells), 30 nM; in test [16], 52 nM; in [17], 23 nM; in test [18] it was 39 nM. For the same compound, the results for the GI50 in [19] (PANC-1 cells) and in test [20] (Hela cells) were 30 nM and 60 nM, respectively.

In the case of `CC(C)=C1NC(=O)c2cc(F)cc(n2)CNC(=O)C[C@@H](/C=C/CCS)OC(=O)[C@H](C(C)C)NC1=O` [Compound 137], the “IC50 HDAC7” value against HDAC7 was “no activity”. The GI50 in [1] stood at 48 nM; in test [2], 30 nM; in [3] it was 30 nM; in test [4] it was 30 nM; in test [5], 26 nM; in test [6], 20 nM. The GI50 in [7] is 80 nM; in test [8] it was 35 nM; in test [9], 30 nM; in test [10], 81 nM; in test [11] it was 20 nM; in [12], 49 nM. The GI50 in [13] was 43 nM; in test [14], 16 nM; in test [15] it was 40 nM; in [16], 53 nM; in [17], 29 nM; in test [18] it was 45 nM. For the same compound, the GI50 in test [19] is 80 nM; in [20] it was 70 nM.

On to `C/C=C1\NC(=O)c2cc(F)cc(n2)CNC(=O)C[C@@H](/C=C/CCSC(C)=O)OC(=O)[C@@H](C)NC1=O` [Compound 101], for which the “IC50 HDAC7” value at HDAC7 is reported as “no activity”. Further, the GI50 in test [1] worked out at 41 nM; in [2], 50 nM; in [3], 30 nM; in [4] it was 20 nM; in test [5] it was 36 nM; in [6], 20 nM. The GI50 in test [7] amounted to 40 nM; in test [8], 21 nM; in test [9] it was 30 nM; in test [10], 48 nM; in test [11], 70 nM; in test [12], 39 nM. Further, the GI50 in test [13] worked out at 36 nM; in [14], 45 nM; in test [15], 20 nM; in test [16] it was 69 nM; in [17], 26 nM; in test [18], 52 nM. The GI50 in [19] and in test [20] was 40 nM in each case.

For the compound `C/C=C1\NC(=O)c2ccc(SC)c(n2)CNC(=O)C[C@@H](/C=C/CCSC(=O)CC)OC(=O)[C@H](C(C)C)NC1=O` [Compound 164], on HDAC7, the “IC50 HDAC7” value is reported as “no activity”. The GI50 was found to be 73 nM in [1]; 60 nM in [2] (U937 cells); 340 nM in test [3] (BGC-823 cells); 30 nM in test [4] (MCF-7 cells); 47 nM in test [5]; 30 nM in test [6] (lncap cells). Also, the concentration for 50% growth inhibition (GI50) in test [7] (HT1080 cells) is 20 nM; in test [8] it was 62 nM; in [9] (DU145 cells) it was 50 nM; in [10], 28 nM; in [11] (A549 cells), 60 nM; in test [12], 28 nM. Besides, the GI50 in test [13] was found to be 95 nM; in [14] it was 38 nM; in test [15] (MOLT-4 cells) it was 50 nM; in test [16], 81 nM; in test [17] it was 41 nM; in test [18] it was 96 nM. Also, the figures for the GI50 in [19] (PANC-1 cells) and in [20] (Hela cells) were 80 nM and 20 nM, respectively.

The GI50 is the concentration giving 50% growth inhibition.
